Assay results as given in the NIST ThermoML archive (doi:10.1021/je400884v).
Numbers after ± are expanded uncertainties.

Test: an = ratio of the nth substance listed
Details: 101 kPa, Liquid, Pycnometric method

| SMILES | mass density (293.15 K, a2 = 0.25) [kg/m3] | mass density (293.15 K, a2 = 0.33) [kg/m3] | mass density (303.15 K, a2 = 0.25) [kg/m3] | mass density (303.15 K, a2 = 0.33) [kg/m3] | mass density (313.15 K, a2 = 0.25) [kg/m3] | mass density (313.15 K, a2 = 0.33) [kg/m3] | mass density (323.15 K, a2 = 0.25) [kg/m3] | mass density (323.15 K, a2 = 0.33) [kg/m3] | mass density (293.15 K, a1 = 0.25) [kg/m3] | mass density (293.15 K, a1 = 0.33) [kg/m3] | mass density (303.15 K, a1 = 0.25) [kg/m3] | mass density (303.15 K, a1 = 0.33) [kg/m3] | mass density (313.15 K, a1 = 0.25) [kg/m3] | mass density (313.15 K, a1 = 0.33) [kg/m3] | mass density (323.15 K, a1 = 0.25) [kg/m3] | mass density (323.15 K, a1 = 0.33) [kg/m3] |
| --- | --- | --- | --- | --- | --- | --- | --- | --- | --- | --- | --- | --- | --- | --- | --- | --- |
| OCCCCO [1,4-butanediol] + C[N+](C)(C)CCO.[Cl-] | 1044.5 ± 1.7 | 1052.4 ± 1.7 | 1041.1 ± 1.7 | 1049 ± 1.7 | 1035.4 ± 1.7 | 1043.2 ± 1.7 | 1030.6 ± 1.7 | 1038.4 ± 1.7 |  |  |  |  |  |  |  |  |
| CC(O)C(C)O (centres undefined) [2,3-butanediol] + C[N+](C)(C)CCO.[Cl-] | 1035 ± 1.7 | 1046.8 ± 1.7 | 1030.9 ± 1.7 | 1039 ± 1.7 | 1026.5 ± 1.7 | 1035.7 ± 1.7 | 1019.7 ± 1.7 | 1030 ± 1.7 |  |  |  |  |  |  |  |  |
| C[N+](C)(C)CCO.[Cl-] [choline chloride] + CC(O)CO |  |  |  |  |  |  |  |  | 1066.3 ± 1.7 | 1066.6 ± 1.7 | 1060.2 ± 1.7 | 1059.9 ± 1.7 | 1054.1 ± 1.7 | 1053.3 ± 1.7 | 1048 ± 1.7 | 1046.7 ± 1.7 |
